Results taken from patent US20160368868A1, “N-(1-CYANO-2-HYDROXY-1-METHYL-ETHYL)-4-(TRIFLUOROMETHYLSULFANYL)BENZAMIDE DERIVATIVES FOR USE AS NEMATOCIDAL DRUGS” (UNIVERSITÄT ZÜRICH Prorektorat MNW, priority 2013, published 2016).

Assays:
H. contortus = assay: Larval development assay (LDA); conditions: for inhibition of the development of H. contortus larvae: at concentrations between 100 μM and 25 μM; for LD50 against H. Contortus: larval development assay, L3 counted after 7 days
HeLa = assay: Resazurin fluorometric cell viability assay, HeLa; conditions: Homo sapiens, 48 h, read-out: IC50 in HeLa
Description: (§1) The toxicity towards a human cervical cancer HeLa and a non-cancerous (MRC-5) cell line was determined using the fluorometric cell viability assay (Resazurin) (Ahmed et al., J. Immunol. Methods 1994, 170, 211.), results of which are shown in Table 1.
(§2) Human cervical carcinoma cells (HeLa) cells were cultured in DMEM (Gibco) supplemented with 5% fetal calf serum (FCS, Gibco), 100 U/ml penicillin, 100 μg/ml streptomycin at 37° C. and 5% CO2. The normal human fetal lung fibroblast MRC-5 cell line was maintained in F-10 medium (Gibco) supplemented with 10% FCS (Gibco), penicillin (100 U/ml), and streptomycin (100 μg/ml). Cytotoxicity studies were performed on two different cell lines, namely HeLa, and MRC-5, by a fluorometric cell viability assay using Resazurin (Promocell GmbH). Briefly, one day before treatment, cells were seeded in triplicates in 96-well plates at a density of 4×10^3 cells/well for HeLa and 7×10^3 for MRC-5 in 1041.1 growth medium. Upon treating cells with increasing concentrations of Fc-PZQ derivatives for 48h, the medium was removed, and 100 μl complete medium containing Resazurin (0.2 mg/ml final concentration) were added. After 4h of incubation at 37° C., fluorescence of the highly red fluorescent product Resorufin was quantified at 590 nm emission with 540 nm excitation wavelength in a SpectraMax M5 microplate Reader.

MRC-5 = assay: Resazurin fluorometric cell viability assay, MRC-5; conditions: Homo sapiens, MRC5, 48 h, read-out: IC50 in MRC-5
Description: as §1, §2

Dirofilaria immitis = assay: Activity in vitro against Dirofilaria immitis microfilariae (motility); type: cell-based; conditions: at up to 10 μg/mL; efficacy in percent reduced motility of microfilariae; 48 hours at 26° C.

CC(=O)OCC(C)(C#N)NC(=O)c1ccc(SC(F)(F)F)cc1 (centres unmarked) [ahpOH1, 2-Cyano-2-(4-((trifluoromethyl)thio)benzamido)propyl acetate]
inhibition of the development of H. contortus larvae (H. contortus): severely and reproducibly inhibited | LD50 against H. Contortus (H. contortus): 550 nM | IC50 (HeLa): > 100 µM | IC50 (MRC-5): > 100 µM

CSc1ccc(C(=O)NC(C)(C#N)CO)cc1 (centres unmarked)
Activity against Dirofilaria immitis (Dirofilaria immitis): EC15 at up to 10 μg/mL

CC(C#N)(CO)NC(=O)c1ccc(SC(F)(F)F)cc1 (centres unmarked) [ahpOH, N-(2-cyano-1-hydroxypropan-2-yl)-4-((trifluoromethyl)thio)benzamide]
inhibition of the development of H. contortus larvae (H. contortus): severely and reproducibly inhibited | LD50 against H. Contortus (H. contortus): 173 nM | IC50 (HeLa): > 100 µM | IC50 (MRC-5): > 100 µM

CC(C#N)(CO)NC(=O)c1ccc([S+]([O-])C(F)(F)F)cc1 (centres unmarked)
Activity against Dirofilaria immitis (Dirofilaria immitis): EC5 at up to 10 μg/mL

CC(C#N)(CO)NC(=O)c1ccc(S(=O)(=O)C(F)(F)F)cc1 (centres unmarked)
Activity against Dirofilaria immitis (Dirofilaria immitis): EC15 at up to 10 μg/mL

CC(C#N)(CO)NC(=O)c1ccc(C(F)(F)F)cc1 (centres unmarked)
Activity against Dirofilaria immitis (Dirofilaria immitis): EC25 at up to 10 μg/mL

C#CC(=O)OCC(C)(C#N)NC(=O)c1ccc(SC(F)(F)F)cc1 (centres unmarked)
Activity against Dirofilaria immitis (Dirofilaria immitis): EC15 at 0-10 μg/mL

CC(C#N)(COC(=O)c1ccccc1)NC(=O)c1ccc(SC(F)(F)F)cc1 (centres unmarked)
Activity against Dirofilaria immitis (Dirofilaria immitis): EC6 at up to 10 μg/mL

C[C@](C#N)(COc1cc(C#N)ccc1C(F)(F)F)NC(=O)c1ccc(SC(F)(F)F)cc1 [Zolvix, Monepantel, reference compound]
LD50 against H. Contortus (H. contortus): <41 nM | IC50 (HeLa): 34.1 µM | IC50 (MRC-5): 63.9 µM

CC(C#N)(CO)NC(=O)c1ccc(SC(F)(F)F)cc1 (centres unmarked) [drawing 36]
Activity against Dirofilaria immitis (Dirofilaria immitis): EC20 at up to 10 μg/mL

CC(C#N)(CO)NC(=O)c1ccc(F)cc1 (centres unmarked)
Activity against Dirofilaria immitis (Dirofilaria immitis): EC20 at up to 10 μg/mL

CC(C#N)(CO)NC(=O)c1ccc(I)cc1 (centres unmarked)
Activity against Dirofilaria immitis (Dirofilaria immitis): EC15 at up to 10 μg/mL
